The subject of assay [1] is primary human T-cells.
In another assay the target is hDGKalpha(1-735)-N-His (Homo sapiens (Human), UniProt P23743). In words: DGKalpha ADP Glo assay (in vitro DGK inhibition). It counts as biochemical. The settings on record: DLG 125 uM, ATP 25 μM, DGK α 4 nM, 1 hour reaction. The method, then:
(§1) DGK α and ζ kinase use ATP to phosphorylate the substrate 1,2-dilauroyl-sn-glycerol (DLG, incorporated in the liposomes). ATP is converted to ADP as a result of this enzymatic reaction. After the kinase reaction, an ATP-depletion reagent is added to terminate the kinase reaction and deplete any remaining ATP, leaving only ADP. Second, a detection reagent is added to simultaneously convert ADP to ATP and allow the newly synthesized ATP to be converted to light using a coupled luciferase/luciferin reaction.
(§2) Purification of both enzymes was performed as previously described by Takahashi et al., PeerJ, 2018 (Takahashi, D.; Sakane, F. Expression and purification of human diacylglycerol kinase alpha from baculovirus-infected insect cells for structural studies. PeerJ 2018, 6, No. e5449).
(§3) A concentrated liposome solution was prepared in assay buffer without DTT and BSA: 2 mM of DLG in 21 mM of total liposome (2 mM DLG/8 mM PS/11 mM PC). […] The reactions were started by addition of DGK α and ζ kinases at 4 nM and 2 nM final concentrations, respectively. After 1 hour reaction, the amount of ADP formed was detected with the ADP-Glo kinase assay (Promega) according to the manufacturer instructions. Compounds were added in 11-points dose response, starting at […], 1:3 dilutions, with a final DMSO concentration of 2%. The multidrop combi was used as a liquid handler and luminescence was read with 0.5 s by the envision reader (PE).

The test system of assay [2] is primary human T-cells. Put plainly: Proliferation assay after 5 days (CellTiter-Glo, CD3 stimulation; PBS counter screen). Conditions: CD3 stimulation; for Emax / Emax proliferation (% activation): 5 days, normalized to reference compound A1 as stimulator control = 100%, DMSO neutral control; for Emax: read-out: Emax proliferation (% activation); for EC50: primary human T-cells, CellTiter-Glo after 5 days, EC50 of fitted sigmoidal curve, read-out: Tcell Proliferation CD3 EC50. It is filed as cell-based. A digest of the protocol:
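Read-out: CellTiter-Glo 2.0 luminescence (ATP ∝ cell number) at day 5 after compound addition. Compounds activating unstimulated cells or reducing viability flagged.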

The target in another assay is hDGKzeta(1-928)-N-His (Homo sapiens (Human), UniProt Q13574). In words: DGKzeta ADP Glo assay (in vitro DGK inhibition). It is filed as biochemical. The settings on record: DLG 125 uM, ATP 50 μM, DGK ζ 2 nM, 1 hour reaction. The method, then: as §1, §2, §3

Read-outs that look alike come from different tables or passages of the source. Some results are limits rather than exact numbers.

Chain of hDGKzeta(1-928)-N-His (Q13574 whole entry): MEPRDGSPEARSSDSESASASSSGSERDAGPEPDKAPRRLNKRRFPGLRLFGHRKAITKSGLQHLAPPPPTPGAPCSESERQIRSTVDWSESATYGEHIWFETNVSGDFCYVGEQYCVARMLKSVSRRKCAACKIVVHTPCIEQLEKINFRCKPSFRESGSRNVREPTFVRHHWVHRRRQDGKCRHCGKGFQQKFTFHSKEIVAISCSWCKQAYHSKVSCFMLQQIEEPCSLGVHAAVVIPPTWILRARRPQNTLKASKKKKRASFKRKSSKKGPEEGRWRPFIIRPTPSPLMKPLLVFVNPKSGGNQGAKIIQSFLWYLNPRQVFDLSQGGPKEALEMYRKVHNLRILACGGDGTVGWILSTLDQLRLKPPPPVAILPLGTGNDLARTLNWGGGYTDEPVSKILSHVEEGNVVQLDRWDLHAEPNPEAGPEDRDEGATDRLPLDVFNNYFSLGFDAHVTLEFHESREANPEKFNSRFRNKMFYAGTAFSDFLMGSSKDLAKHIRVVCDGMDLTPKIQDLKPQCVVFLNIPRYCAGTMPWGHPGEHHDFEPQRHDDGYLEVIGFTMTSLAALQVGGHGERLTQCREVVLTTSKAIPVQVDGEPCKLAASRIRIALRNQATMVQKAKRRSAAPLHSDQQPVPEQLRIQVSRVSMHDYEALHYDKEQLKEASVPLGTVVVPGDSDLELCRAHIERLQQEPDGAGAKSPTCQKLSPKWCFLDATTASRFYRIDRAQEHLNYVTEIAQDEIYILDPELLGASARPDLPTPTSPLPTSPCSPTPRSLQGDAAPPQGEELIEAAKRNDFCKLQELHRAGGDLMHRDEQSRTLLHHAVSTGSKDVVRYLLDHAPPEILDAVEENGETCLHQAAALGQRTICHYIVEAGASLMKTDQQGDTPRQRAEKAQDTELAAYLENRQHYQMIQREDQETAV
Chain of hDGKalpha(1-735)-N-His (P23743 whole entry): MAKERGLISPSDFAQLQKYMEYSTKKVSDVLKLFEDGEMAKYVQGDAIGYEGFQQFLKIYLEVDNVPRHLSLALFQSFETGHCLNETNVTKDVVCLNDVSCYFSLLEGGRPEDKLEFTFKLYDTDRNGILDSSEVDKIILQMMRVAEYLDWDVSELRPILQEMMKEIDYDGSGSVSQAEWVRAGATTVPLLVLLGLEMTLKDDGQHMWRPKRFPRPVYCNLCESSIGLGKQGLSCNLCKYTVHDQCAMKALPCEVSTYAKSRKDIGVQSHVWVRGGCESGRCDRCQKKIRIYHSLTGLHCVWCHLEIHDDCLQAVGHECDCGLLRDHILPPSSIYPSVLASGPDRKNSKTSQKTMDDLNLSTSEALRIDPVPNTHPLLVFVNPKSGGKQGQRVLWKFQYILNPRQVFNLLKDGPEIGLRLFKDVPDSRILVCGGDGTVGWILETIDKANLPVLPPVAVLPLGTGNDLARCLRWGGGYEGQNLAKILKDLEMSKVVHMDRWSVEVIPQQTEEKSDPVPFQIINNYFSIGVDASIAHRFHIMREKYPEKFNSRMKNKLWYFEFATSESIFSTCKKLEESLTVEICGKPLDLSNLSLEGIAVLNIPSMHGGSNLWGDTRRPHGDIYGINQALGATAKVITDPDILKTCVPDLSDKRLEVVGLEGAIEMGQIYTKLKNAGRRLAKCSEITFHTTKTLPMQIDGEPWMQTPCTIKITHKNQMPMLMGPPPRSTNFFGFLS

Consider `CC1(C)CN(c2nc(-c3cc4c(cc3F)S(=O)(=O)C[C@H](N)C(=O)N4Cc3ccc(Cl)cc3)no2)CCO1` [Example 205, (3R)-3-amino-5-[(4-chlorophenyl)methyl]-7-[5-(2,2-dimethylmorpholin-4-yl)-1,2,4-oxadiazol-3-yl]-8-fluoro-1,1-dioxo-2,3-dihydro-16,5-benzothiazepin-4-one], for which the EC50 came to 1050 nM with primary human T-cells [1] and 2120 nM with primary human T-cells [2] (Homo sapiens, T-cell, 120 h). Moreover, the IC50 is 299 nM at hDGKalpha(1-735)-N-His and 147 nM against hDGKzeta(1-928)-N-His. In addition, the Emax in the assay with primary human T-cells [2] (Homo sapiens, T-cell, 120 h) was found to be 119%.
`N[C@H]1C[S+]([O-])c2cc(F)c(-c3noc(N4CCOC5CC54)n3)cc2N(Cc2ccc(Cl)cc2)C1=O` (single isomer, unassigned; epimer b) [Example 208]: the EC50 in the assay on primary human T-cells [1] is 5250 nM; in the assay on primary human T-cells [2], 5310 nM. The IC50 against hDGKalpha(1-735)-N-His came out at 2640 nM; on hDGKzeta(1-928)-N-His, 147 nM. For the same molecule, in the assay with primary human T-cells [2], the “Emax proliferation (% activation)” value is given as 106 % activation.
`COC(=O)N1CCC(c2nc(-c3cc4c(cc3F)S(=O)(=O)C[C@H](N)C(=O)N4Cc3ccc(OC4CCCC4)cc3)no2)C1` (stereo partly drawn) [Example 348, methyl 3-[3-[(3R)-3-amino-5-[[4-(cyclopentoxy)phenyl]methyl]-8-fluoro-1,1,4-trioxo-2,3-dihydro-1λ^6,5-benzothiazepin-7-yl]-1,2,4-oxadiazol-5-yl]pyrrolidine-1-carboxylate]: the EC50 worked out at 1710 nM in the assay on primary human T-cells [1] and 662 nM in the assay with primary human T-cells [2] (Homo sapiens, T-cell, 120 h). The IC50 was 2660 nM at hDGKalpha(1-735)-N-His and 374 nM against hDGKzeta(1-928)-N-His. Moreover, the Emax in the assay with primary human T-cells [2] (Homo sapiens, T-cell, 120 h) stood at 141%.
As for `CC(C)(C)c1nnc(-c2ccc3c(c2)N(Cc2ccc(OC(F)(F)C(F)F)cc2)C(=O)[C@@H](N)CS3(=O)=O)o1` [Example 442, (3R)-3-amino-7-(5-tert-butyl-1,3,4-oxadiazol-2-yl)-1,1-dioxo-5-[[4-(1,1,2,2-tetrafluoroethoxy)phenyl]methyl]-2,3-dihydro-1λ^6,5-benzothiazepin-4-one], the EC50 in the assay with primary human T-cells [1] turned out to be 148 nM; in the assay with primary human T-cells [2] (Homo sapiens, T-cell, 120 h), 240 nM. Besides, the IC50 was determined as 1390 nM at hDGKalpha(1-735)-N-His and 285 nM on hDGKzeta(1-928)-N-His. The Emax in the assay on primary human T-cells [2] (Homo sapiens, T-cell, 120 h) turned out to be 134%.
Regarding `Cc1cc(S(C)(=O)=O)ccc1-c1nnc(-c2ccc3c(c2)N(Cc2ccc(Cl)cc2)C(=O)[C@@H](N)CS3(=O)=O)o1` [Example 379, (3R)-3-amino-5-[(4-chlorophenyl)methyl]-7-[5-(2-methyl-4-methylsulfonyl-phenyl)-1,3,4-oxadiazol-2-yl]-1,1-dioxo-2,3-dihydro-1λ^6,5-benzothiazepin-4-one], the EC50 was 2090 nM with primary human T-cells [1] and 4850 nM in the assay on primary human T-cells [2] (Homo sapiens, T-cell, 120 h). The IC50 stood at 42700 nM against hDGKalpha(1-735)-N-His and 1300 nM at hDGKzeta(1-928)-N-His. The Emax with primary human T-cells [2] (Homo sapiens, T-cell, 120 h) was determined as 69%.
`CC(C)Oc1ccc(CN2C(=O)[C@@H](N)CS(=O)(=O)c3cc(F)c(-c4noc(C(N)C(F)(F)F)n4)cc32)cc1` (stereo partly drawn) [Example 48, (3R)-3-amino-7-[5-(1-amino-2,2,2-trifluoro-ethyl)-1,2,4-oxadiazol-3-yl]-8-fluoro-5-[(4-isopropoxyphenyl)methyl]-1,1-dioxo-2,3-dihydro-1λ^6,5-benzothiazepin-4-one]: the EC50 in the assay on primary human T-cells [1] is 2330 nM; in the assay on primary human T-cells [2] (Homo sapiens, T-cell, 120 h) it was 3190 nM. Also, the IC50 against hDGKalpha(1-735)-N-His came out at 403 nM; on hDGKzeta(1-928)-N-His, 114 nM. Further, the Emax with primary human T-cells [2] (Homo sapiens, T-cell, 120 h) came out at 248%.
On to `Cc1cc(C)c(-c2nc(-c3cc4c(cc3F)S(=O)(=O)C[C@H](N)C(=O)N4Cc3ccc(Cl)cc3)no2)cn1` [Example 313, (3R)-3-amino-5-[(4-chlorophenyl)methyl]-7-[5-(4,6-dimethyl-3-pyridyl)-1,2,4-oxadiazol-3-yl]-8-fluoro-1,1-dioxo-2,3-dihydro-1λ^6,5-benzothiazepin-4-one], for which the EC50 amounted to 1120 nM in the assay with primary human T-cells [1] and 375 nM with primary human T-cells [2] (Homo sapiens, T-cell, 120 h). In addition, the IC50 was 1660 nM at hDGKalpha(1-735)-N-His and 130 nM on hDGKzeta(1-928)-N-His. The Emax in the assay on primary human T-cells [2] (Homo sapiens, T-cell, 120 h) was found to be 191%.
Regarding `COC(F)(c1nc(-c2cc3c(cc2F)S(=O)(=O)C[C@H](N)C(=O)N3Cc2ccc(Cl)cc2)no1)C(F)(F)F` (stereo partly drawn) [Example 292, (3R)-3-amino-5-[(4-chlorophenyl)methyl]-8-fluoro-1,1-dioxo-7-[5-(1,2,2,2-tetrafluoro-1-methoxy-ethyl)-1,2,4-oxadiazol-3-yl]-2,3-dihydro-1λ^6,5-benzothiazepin-4-one], the EC50 was determined as 126 nM with primary human T-cells [1] and 31.9 nM in the assay on primary human T-cells [2] (Homo sapiens, T-cell, 120 h). Also, the IC50 at hDGKalpha(1-735)-N-His was 528 nM; on hDGKzeta(1-928)-N-His, 494 nM. For the same molecule, the Emax in the assay on primary human T-cells [2] (Homo sapiens, T-cell, 120 h) came to 179%.
For the molecule `N[C@H]1CS(=O)(=O)c2ccc(-c3nnc(N4[C@@H]5CC[C@H]4COC5)o3)cc2N(Cc2ccc(Cl)cc2)C1=O` [Example 407, (3R)-3-amino-5-[(4-chlorophenyl)methyl]-7-[5-[(1R,5S)-3-oxa-8-azabicyclo[3.2.1]octan-8-yl]-1,3,4-oxadiazol-2-yl]-1,1-dioxo-2,3-dihydro-1λ^6,5-benzothiazepin-4-one], the EC50 in the assay with primary human T-cells [1] is more than 10000 nM; in the assay on primary human T-cells [2] (Homo sapiens, T-cell, 120 h), 2810 nM. Moreover, the values for the IC50 on hDGKalpha(1-735)-N-His and against hDGKzeta(1-928)-N-His were 1420 nM and 2660 nM, respectively. Further, the Emax in the assay with primary human T-cells [2] (Homo sapiens, T-cell, 120 h) amounted to 96%.
On the same counts, the results for `CC(C)(C)c1nnc(-c2ccc3c(c2)N(Cc2ccc(Oc4ccccc4)cc2)C(=O)[C@@H](N)CS3(=O)=O)o1` [Example 438, (3R)-3-amino-7-(5-tert-butyl-1,3,4-oxadiazol-2-yl)-1,1-dioxo-5-[(4-phenoxyphenyl)methyl]-2,3-dihydro-1λ^6,5-benzothiazepin-4-one] are 700 nM, 246 nM, 797 nM, 1340 nM and 78%.
On to `N[C@H]1C[S+]([O-])c2cc(F)c(-c3noc(N4CCOC(C(F)(F)F)C4)n3)cc2N(Cc2ccc(Cl)cc2)C1=O` (single isomer, unassigned; epimer b) [Example 212], for which the EC50 came to 2950 nM in the assay with primary human T-cells [1] and 338 nM in the assay with primary human T-cells [2]. Besides, the IC50 against hDGKalpha(1-735)-N-His amounted to 975 nM; at hDGKzeta(1-928)-N-His it was 46 nM. In the assay on primary human T-cells [2], the “Emax proliferation (% activation)” value is on record as 178 % activation.
`CC(C)(C)c1nc(-c2cc3c(cc2F)S(=O)(=O)C[C@H](N)C(=O)N3Cc2ccc(F)cc2)no1` [Example 357, (3R)-3-amino-7-(5-tert-butyl-1,2,4-oxadiazol-3-yl)-8-fluoro-5-[(4-fluorophenyl)methyl]-1,1-dioxo-2,3-dihydro-1λ^6,5-benzothiazepin-4-one]: the EC50 with primary human T-cells [1] was 3000 nM; in the assay with primary human T-cells [2] (Homo sapiens, T-cell, 120 h), 1140 nM. In addition, the values for the IC50 against hDGKalpha(1-735)-N-His and at hDGKzeta(1-928)-N-His were 403 nM and 114 nM, respectively. The Emax in the assay on primary human T-cells [2] (Homo sapiens, T-cell, 120 h) is 386%.
On the same counts, the results for `CC(C)(C)c1nnc(-c2cc3c(cc2F)S(=O)(=O)C[C@H](N)C(=O)N3Cc2ccc(C(C)(C)C#N)cc2)o1` [Example 244, 2-methyl-2-[4-[[(3R)-3-amino-7-(5-tert-butyl-1,3,4-oxadiazol-2-yl)-8-fluoro-1,1,4-trioxo-2,3-dihydro-1λ^6,5-benzothiazepin-5-yl]methyl]phenyl]propanenitrile] are 236 nM, 137 nM, 836 nM, 1100 nM and 102%.
In the case of `Cc1cc(S(C)(=O)=O)ccc1-c1nc(-c2cc3c(cc2F)S(=O)(=O)C[C@H](N)C(=O)N3Cc2ccc(Cl)cc2)no1` [Example 314, (3R)-3-amino-5-[(4-chlorophenyl)methyl]-8-fluoro-7-[5-(2-methyl-4-methylsulfonyl-phenyl)-1,2,4-oxadiazol-3-yl]-1,1-dioxo-2,3-dihydro-1λ^6,5-benzothiazepin-4-one], the EC50 was determined as 234 nM with primary human T-cells [1] and 155 nM in the assay with primary human T-cells [2] (Homo sapiens, T-cell, 120 h). The IC50 worked out at 6150 nM on hDGKalpha(1-735)-N-His and 150 nM on hDGKzeta(1-928)-N-His. In addition, the Emax in the assay on primary human T-cells [2] (Homo sapiens, T-cell, 120 h) amounted to 78%.
Consider `CC(N)(c1nc(-c2cc3c(cc2F)S(=O)(=O)C[C@H](N)C(=O)N3Cc2ccc(Cl)cc2)no1)C(F)(F)F` (stereo partly drawn) [Example 297, (3R)-3-amino-7-[5-(1-amino-2,2,2-trifluoro-1-methyl-ethyl)-1,2,4-oxadiazol-3-yl]-5-[(4-chlorophenyl)methyl]-8-fluoro-1,1-dioxo-2,3-dihydro-1λ^6,5-benzothiazepin-4-one], for which the EC50 in the assay on primary human T-cells [1] is 169 nM; with primary human T-cells [2] (Homo sapiens, T-cell, 120 h) it was 219 nM. In addition, the values for the IC50 at hDGKalpha(1-735)-N-His and at hDGKzeta(1-928)-N-His were 373 nM and 357 nM, respectively. For the same molecule, the Emax in the assay with primary human T-cells [2] (Homo sapiens, T-cell, 120 h) was determined as 157%.

Source of the values: patent US20240368150A1 (Hoffmann-La Roche Inc., priority 2021, published 2024).
